The test concerns the target Enteropeptidase (Homo sapiens, UniProt P98073). Put plainly: Enteropeptidase Inhibition Assay: The inhibitory activity of the enteropeptidase inhibitor synthesized using the purified Recombinant Human Enteropeptidase and the substrate Acetyl-Asp-Asp-Asp-Asp-Lys-AFC (BioVision) was measured. 7.2 ng/mL of Enteropeptidase diluted with a buffer (20 mM Tris, 50 mM NaCl, pH 7.5) in a 96 well plate (Costar), 30 μM of Acetyl-Asp-Asp-Asp-Asp-Lys-AFC, several concentrations of Enteropeptidase inhibitors (1% DMSO concentration) were dispensed such that a final volume was 100 μL, and then the enzyme reaction was carried out at 30° C. for 1 hour. At this time, 1% DMSO, a substrate and Enteropeptidase instead of the compound were dispensed onto positive control wells, and 1% DMSO and a substrate were dispensed onto negative control wells. The enzyme reaction was started using an excitation wavelength of 380 nm and an emission wavelength of 500 nm in a fluorescence spectrometer, and then the rate of increase in fluorescence (milli-units per min) between 20 and 60 minutes was measured.

Sequence of Enteropeptidase (P98073 2-784 limits assumed): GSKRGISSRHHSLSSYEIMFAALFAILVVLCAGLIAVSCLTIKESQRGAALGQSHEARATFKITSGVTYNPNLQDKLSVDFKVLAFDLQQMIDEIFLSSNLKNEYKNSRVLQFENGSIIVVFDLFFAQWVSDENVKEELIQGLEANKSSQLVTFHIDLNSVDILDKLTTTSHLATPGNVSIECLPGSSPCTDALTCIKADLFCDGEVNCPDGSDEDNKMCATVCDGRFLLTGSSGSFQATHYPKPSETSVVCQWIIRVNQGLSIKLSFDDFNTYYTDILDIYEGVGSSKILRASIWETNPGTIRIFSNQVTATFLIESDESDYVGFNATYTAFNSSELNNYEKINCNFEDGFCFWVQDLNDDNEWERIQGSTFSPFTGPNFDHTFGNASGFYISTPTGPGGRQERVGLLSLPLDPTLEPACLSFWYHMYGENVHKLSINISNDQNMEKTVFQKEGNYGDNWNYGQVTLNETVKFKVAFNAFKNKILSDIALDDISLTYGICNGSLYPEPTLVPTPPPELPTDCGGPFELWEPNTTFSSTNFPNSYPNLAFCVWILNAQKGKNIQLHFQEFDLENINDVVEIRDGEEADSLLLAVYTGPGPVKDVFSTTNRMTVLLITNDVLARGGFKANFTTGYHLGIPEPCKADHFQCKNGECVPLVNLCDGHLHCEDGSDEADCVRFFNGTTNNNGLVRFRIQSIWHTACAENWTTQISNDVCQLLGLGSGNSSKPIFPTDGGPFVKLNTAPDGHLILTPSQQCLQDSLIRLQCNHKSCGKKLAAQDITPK
Sequence of Enteropeptidase (P98073 785-1019 limits assumed): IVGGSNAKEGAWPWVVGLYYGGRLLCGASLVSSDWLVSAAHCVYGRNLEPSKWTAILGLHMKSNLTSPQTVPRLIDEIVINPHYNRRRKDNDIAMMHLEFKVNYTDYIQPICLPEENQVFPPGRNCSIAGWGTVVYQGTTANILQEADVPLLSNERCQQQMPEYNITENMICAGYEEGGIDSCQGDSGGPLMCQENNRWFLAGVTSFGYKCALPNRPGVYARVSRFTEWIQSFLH

As for `N=C(N)c1ccc(OC(=O)c2cnc(N3CCC(C(=O)N[C@@H](CC(=O)OCc4ccccc4)C(=O)OCc4ccccc4)CC3)s2)c(F)c1`, the Ki – broadly, the dissociation constant of the complex between target and ligand, obtained from inhibition or displacement – was 8.2 nM.
As for `CCN(CCC(=O)O)c1ncc(C(=O)Oc2ccc(C(=N)N)cc2F)s1`, the Ki is 0.68 nM.

Values taken from ChEMBL document CHEMBL5729321, “Compound exhibiting enteropeptidase inhibitory activity” (2022).
